Test results reported in patent US20220289753A1, “SHP2 INHIBITORS” (IRBM S.P.A., priority 2019, published 2022).

molecular target: T1, SHP-2 enzyme (Met1-Leu525) (Homo sapiens, UniProt Q06124); experiment: SHP2 inhibition enzymatic assay (DiFMUP substrate, IRS1 peptide activation); type: biochemical; conditions: SHP2 wt; activated by 500 nM IRS1 peptide; 75 μM DiFMUP substrate
T1 construct: synthetized by Origene, Met1-Leu525, cat #TP750155; purchased Origene TP750155
T1 sequence (Q06124 1-525): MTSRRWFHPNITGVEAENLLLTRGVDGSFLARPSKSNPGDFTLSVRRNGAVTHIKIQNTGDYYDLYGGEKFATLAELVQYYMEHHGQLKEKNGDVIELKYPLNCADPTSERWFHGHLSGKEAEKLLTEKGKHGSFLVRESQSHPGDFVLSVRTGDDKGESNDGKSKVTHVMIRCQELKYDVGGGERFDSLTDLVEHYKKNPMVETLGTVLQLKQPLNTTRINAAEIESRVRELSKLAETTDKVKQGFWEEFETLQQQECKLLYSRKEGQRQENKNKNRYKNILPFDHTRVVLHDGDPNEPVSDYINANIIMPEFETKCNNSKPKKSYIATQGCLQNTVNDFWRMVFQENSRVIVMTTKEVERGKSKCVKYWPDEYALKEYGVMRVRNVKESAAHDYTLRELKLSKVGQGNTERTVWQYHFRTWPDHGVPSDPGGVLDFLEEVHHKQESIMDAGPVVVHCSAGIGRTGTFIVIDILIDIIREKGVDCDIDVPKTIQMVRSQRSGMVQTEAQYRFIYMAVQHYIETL
Protocol: SHP2 Inhibition Enzymatic Assay
Assay volume of 20 μL/well was assembled in 384 well black polystyrene low-binding microplates (Greiner), using the following buffer: 60 mM HEPES pH 7.2, 75 mM NaCl, 75 mM KCl, 1 mM EDTA pH 8, 0.05% tween-20, 5 mM DTT. The SHP-2 enzyme (synthetized by Origene, Met1-Leu525, cat #TP750155) was used at a final concentration of 0.5 nM.
Briefly, DMSO serially diluted testing compounds were transferred to the bottom of the assay plate. SHP2 was then added together with the IRS1 peptide. 30 minutes post incubation, the DiFMUP substrate was added to the reaction and incubated 30 min at room temperature. […] The fluorescence was detected by a microplate reader (Envision, PerkinElmer) according to the DiFMUP excitation and emission wavelength. The lower the fluorescence the higher the SHP2 inhibition.
The percentage inhibition is fitted against the compound dilutions with a four-parameter logistic regression. The inflection point (i.e. the concentration at which half-maximal inhibition is achieved) is the IC50.

Row | SMILES | IC50
1 | NC1CCN(c2nc3nc(Sc4cccnc4C(F)(F)F)cnc3[nH]2)CC1 [Example 7, 1-(5-((2-(trifluoromethyl)pyridin-3-yl)thio)-1H-imidazo[4,5-b]pyrazin-2-yl)piperidin-4-amine] | 0.5 to 3 µM
2 | CC1(N)CCN(c2nc3nc(Sc4ccccc4S(C)(=O)=O)cnc3[nH]2)CC1 [Example 117, 4-methyl-1-(5-((2-(methylsulfonyl)phenyl)thio)-1H-imidazo[4,5-b]pyrazin-2-yl)piperidin-4-amine] | > 3 µM
3 | COc1ccccc1Sc1cnc2[nH]c(N3CCC(C)(N)CC3)nc2n1 [Example 24, 1-(5-((2-methoxyphenyl)thio)-1H-imidazo[4,5-b]pyrazin-2-yl)-4-methylpiperidin-4-amine] | < 0.5 µM
4 | Cn1cnc(C2CCN(c3nc4nc(Sc5cccnc5C(F)(F)F)cnc4[nH]3)CC2)c1 [Example 53, 2-(4-(1-methyl-1H-imidazol-4-yl)piperidin-1-yl)-5-((2-(trifluoromethyl)pyridin-3-yl)thio)-1H-imidazo[4,5-b]pyrazine] | > 3 µM
5 | Nc1cnc2c(c1)CN(c1nc3nc(Sc4cccnc4C(F)(F)F)cnc3[nH]1)CC2 [Example 108, 6-(5-((2-(trifluoromethyl)pyridin-3-yl)thio)-1H-imidazo[4,5-b]pyrazin-2-yl)-5,6,7,8-tetrahydro-1,6-naphthyridin-3-amine] | > 3 µM
6 | CC1(N)CCN(c2nc3nc(Sc4ccccc4Cl)cnc3[nH]2)CC1 [Example 98, 1-(5-((2-chlorophenyl)thio)-1H-imidazo[4,5-b]pyrazin-2-yl)-4-methylpiperidin-4-amine] | < 0.5 µM
7 | CC1(N)CCN(c2nc3nc(Sc4ccc(OC(F)(F)F)cc4)cnc3[nH]2)CC1 [Example 27, 4-methyl-1-(5-((4-(trifluoromethoxy)phenyl)thio)-1H-imidazo[4,5-b]pyrazin-2-yl)piperidin-4-amine] | > 3 µM
8 | CC1(N)CCN(c2nc3nc(Sc4ccccc4-c4nccs4)cnc3[nH]2)CC1 [Example 102, 4-methyl-1-(5-((2-(thiazol-2-yl)phenyl)thio)-1H-imidazo[4,5-b]pyrazin-2-yl)piperidin-4-amine] | > 3 µM
9 | CC1(N)CCN(c2nc3nc(Sc4cccc(C(F)(F)F)n4)cnc3[nH]2)CC1 [Example 47, 4-methyl-1-(5-((6-(trifluoromethyl)pyridin-2-yl)thio)-1H-imidazo[4,5-b]pyrazin-2-yl)piperidin-4-amine] | 0.5 to 3 µM
10 | NC(=O)C1CCN(c2nc3nc(Sc4cccnc4C(F)(F)F)cnc3[nH]2)CC1 [Example 51, 1-(5-((2-(trifluoromethyl)pyridin-3-yl)thio)-1H-imidazo[4,5-b]pyrazin-2-yl)piperidine-4-carboxamide] | > 3 µM
11 | COc1ncccc1Sc1cnc2[nH]c(N3CCC4(CC3)Cc3ccccc3[C@H]4N)nc2n1 [Example 214, (S)-1′-(5-((2-methoxypyridin-3-yl)thio)-1H-imidazo[4,5-b]pyrazin-2-yl)-1,3-dihydrospiro[indene-2,4′-piperidin]-1-amine] | < 0.5 µM
12 | CC1(N)CCN(c2nc3nc(Sc4ccncc4Cl)cnc3[nH]2)CC1 [Example 28, 1-(5-((3-chloropyridin-4-yl)thio)-1H-imidazo[4,5-b]pyrazin-2-yl)-4-methylpiperidin-4-amine] | < 0.5 µM
13 | NC1CN(c2nc3nc(Sc4cccnc4C(F)(F)F)cnc3[nH]2)C1 [Example 15, 1-(5-((2-(trifluoromethyl)pyridin-3-yl)thio)-1H-imidazo[4,5-b]pyrazin-2-yl)azetidin-3-amine] | > 3 µM
14 | Nc1nccc(Sc2cnc3[nH]c(N4CCC5(CC4)Cc4ccc(O)cc4[C@H]5N)nc3n2)c1Cl [Example 208, (S)-1-amino-1′-(5-((2-amino-3-chloropyridin-4-yl)thio)-1H-imidazo[4,5-b]pyrazin-2-yl)-1,3-dihydrospiro[indene-2,4′-piperidin]-6-ol] | < 0.5 µM
15 | CC1(N)CCN(c2nc3nc(Nc4cccc(Cl)c4Cl)cnc3[nH]2)CC1 [Example 121, 2-(4-amino-4-methylpiperidin-1-yl)-N-(2,3-dichlorophenyl)-1H-imidazo[4,5-b]pyrazin-5-amine] | > 3 µM
16 | FC(F)(F)c1ncccc1Sc1cnc2[nH]c(N3C[C@@H]4CC[C@H]3CN4)nc2n1 [Example 90, (1S,4S)-2-(5-((2-(trifluoromethyl)pyridin-3-yl)thio)-1H-imidazo[4,5-b]pyrazin-2-yl)-2,5-diazabicyclo[2.2.2]octane] | 0.5 to 3 µM
17 | COc1cccc(Sc2cnc3[nH]c(N4CCC(C)(N)CC4)nc3n2)c1 [Example 25, 1-(5-((3-methoxyphenyl)thio)-1H-imidazo[4,5-b]pyrazin-2-yl)-4-methylpiperidin-4-amine] | 0.5 to 3 µM
18 | CC1(N)CCN(c2nc3nc(Sc4ccc(C(=O)O)cc4Cl)cnc3[nH]2)CC1 [Example 99, 4-((2-(4-amino-4-methylpiperidin-1-yl)-1H-imidazo[4,5-b]pyrazin-5-yl)thio)-3-chlorobenzoic acid] | < 0.5 µM
19 | CC1(N)CCN(c2nc3nc(Sc4cccc(S(F)(F)(F)(F)F)c4)cnc3[nH]2)CC1 [Example 93, 4-methyl-1-(5-((3-(pentafluoro-l6-sulfaneyl)phenyl)thio)-1H-imidazo[4,5-b]pyrazin-2-yl)piperidin-4-amine] | 0.5 to 3 µM
20 | COc1ccc(Sc2cnc3[nH]c(N4CCC(C)(N)CC4)nc3n2)cc1 [Example 45, 1-(5-((4-methoxyphenyl)thio)-1H-imidazo[4,5-b]pyrazin-2-yl)-4-methylpiperidin-4-amine] | 0.5 to 3 µM
21 | CC1(N)CCN(c2nc3nc(Sc4ccc(F)cc4F)cnc3[nH]2)CC1 [Example 20, 1-(5-((2,4-difluorophenyl)thio)-1H-imidazo[4,5-b]pyrazin-2-yl)-4-methylpiperidin-4-amine] | < 0.5 µM
22 | CC1(N)CCN(c2nc3nc(Sc4ccc(-c5nnc(-c6ccccc6)o5)cc4)cnc3[nH]2)CC1 [Example 59, 4-methyl-1-(5-((4-(5-phenyl-1,3,4-oxadiazol-2-yl)phenyl)thio)-1H-imidazo[4,5-b]pyrazin-2-yl)piperidin-4-amine] | 0.5 to 3 µM
23 | CC1(N)CCN(c2nc3nc(Sc4cccc(C#N)c4)cnc3[nH]2)CC1 [Example 26, 3-((2-(4-amino-4-methylpiperidin-1-yl)-1H-imidazo[4,5-b]pyrazin-5-yl)thio)benzonitrile] | 0.5 to 3 µM
24 | FC(F)(F)c1ncccc1Sc1cnc2[nH]c(NCC3COCCN3)nc2n1 (stereo not drawn) [Example 111, N-(morpholin-3-ylmethyl)-5-((2-(trifluoromethyl)pyridin-3-yl)thio)-1H-imidazo[4,5-b]pyrazin-2-amine] | > 3 µM
25 | FC(F)(F)c1ncccc1Sc1cnc2[nH]c(NCC3CCNCC3)nc2n1 [Example 110, N-(piperidin-4-ylmethyl)-5-((2-(trifluoromethyl)pyridin-3-yl)thio)-1H-imidazo[4,5-b]pyrazin-2-amine] | > 3 µM
26 | CC1(N)CCN(c2nc3nc(Sc4cccc5ncncc45)cnc3[nH]2)CC1 [Example 100, 4-methyl-1-(5-(quinazolin-5-ylthio)-1H-imidazo[4,5-b]pyrazin-2-yl)piperidin-4-amine] | 0.5 to 3 µM
27 | CNC1CCN(c2nc3nc(Sc4cccnc4C(F)(F)F)cnc3[nH]2)CC1 [Example 16, N-methyl-1-(5-((2-(trifluoromethyl)pyridin-3-yl)thio)-1H-imidazo[4,5-b]pyrazin-2-yl)piperidin-4-amine] | 0.5 to 3 µM
